Where no end group is shown, it is not given here.
How the values were obtained:
HIV-1IIIB = assay: HIV-1 antiviral assay in CEM-SS cells (MTS readout)
[1] = tested on: Primary Human endothelial cells (HUVEC); assay: Endothelial cell migration assay; format: cell-based; settings: 10 micrograms per ml, 22 hours
Protocol: Thereafter, designated concentration of testing peptides—10 micrograms per ml—was added in duplicate wells.

[2] = tested on: hepatitis B virus (HBV) ayw strain; assay: HBV experimental assay system, secreted HBV DNA by TaqMan PCR; format: cell-based; settings: 10 micrograms per ml; HepG2-2.2.15 cells; six days
HUVEC = assay: Endothelial tube formation assay; format: cell-based, human; settings: 10 micrograms per ml, 20 hours
Excerpt: […] control wes vehicle only. […] Raw data were expressed as average tubule lenghs in pixels±standard deviation.

HCMV strain AD169 = assay: HCMV plaque formation assay in MRC-5 cells; format: cell-based; settings: 10 micrograms per ml, 7-10 days
Excerpt: Cells were split twic a week 1:2.
Ganciclovir was used as positive control.

Streptococcus pneumoniae = Streptococcus pneumoniae growth assay; format: cell-based; settings: 10 micrograms per ml; 5×10^5 CFU/mL
murine spleen cells = assay: Th1/Th2 cytokine profiling assay in Ovalbumin-restimulated spleen cells; format: cell-based, Balb/c mice; settings: 10 micrograms per ml, Ovalbumin restimulation, 72 hours

Row | Molecule | antiviral activity of positive control compounds (HIV-1) (HIV-1IIIB) | increase of the migration of human endothelial cells [1] [%] | inhibition of HBV replication as compared to the virus control infection [2] [%] | inhibition of the tube formation of human endothelial cells (HUVEC) [%] | inhibition of HCMV plaque formation as compared to the virus control (HCMV strain AD169) | inhibition of the growth of Streptococcus pneumoniae (Streptococcus pneumoniae) [%] | change of the production of IFN-γ (murine spleen cells) | change of the production of IL-5 (murine spleen cells) | change of the production of TNF-a (murine spleen cells) | induction (increase) of the production of IL-2 (murine spleen cells) [%] | induction (increase) of the production of IL-4 (murine spleen cells) [%]
1 | Cc1cn([C@H]2C[C@H](N=[N+]=[N-])[C@@H](CO)O2)c(=O)[nH]c1=O [AZT] | expected levels of antiviral activity | – | – | – | – | – | – | – | – | – | –
2 | CC(C)(C)NC(=O)[C@@H]1CN(Cc2cccnc2)CCN1C[C@@H](O)C[C@@H](Cc1ccccc1)C(=O)N[C@H]1c2ccccc2C[C@H]1O [indinavir] | expected levels of antiviral activity | – | – | – | – | – | – | – | – | – | –
3 | Tyr-Ser-Ala-Tyr-Pro-Asp-Ser-Val-Pro-Met-Met-Ser-OH [Peptide 1] | – | 4 | 51.1 | 4 | did not inhibit | 100 | did not significantly change | did not significantly change | did not significantly change | 82.2 | 74.3
4 | Trp-Met-Asn-Ser-Thr-Gly-Phe-Thr-Lys-Val-Cys-Gly-Ala-Pro-Pro-Cys-OH (WMNSTGFTKVCGAPPC-OH; cysteine pairing not given here) [Peptide 2] | – | 7 | 53.2 | 8 | did not inhibit | 100 | did not significantly change | did not significantly change | did not significantly change | 92.6 | 87.3

— patent US20100204132A1, “[…] USES OF PEPTIDES […] and […]” (priority 2007, published 2010)
